Assay results from PubChem BioAssay (NCI).
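Grown in 96-well plates, cells were treated for 48 hours with each compound at five concentrations. Insufficient inhibition: endpoint recorded as highest concentration tested. At the GI50, growth is halved. TGI: concentration producing complete growth inhibition.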 Where a SMILES comes first, the peptide text is derived from it. Bridges are numbered along the chain shown (N, C = ends). Roman numbers before positions name the chains, in order. [ ]: non-standard residue; d: D form. The star is where a group is joined. Heptadecanoyl = CCCCCCCCCCCCCCCCC(=O)*; Phg = N[CH](C(=O)O)c1ccccc1

Experiments:
Assay in all cases: inhibition of tumour cell growth, NCI panel, 48 h
OVCAR-5 ovarian = test system: OVCAR-5 ovarian
UACC-257 melanoma = test system: UACC-257 melanoma
HCT-116 colon = test system: HCT-116 colon
NCI/ADR-RES ovarian = test system: NCI/ADR-RES ovarian
SN12C renal = test system: SN12C renal
COLO 205 colon = test system: COLO 205 colon
HOP-92 NSCLC = test system: HOP-92 NSCLC
OVCAR-3 ovarian = test system: OVCAR-3 ovarian
BT-549 breast = test system: BT-549 breast
RXF 393 renal = test system: RXF 393 renal

Structure (SMILES) | TGI (OVCAR-5 ovarian) | TGI (UACC-257 melanoma) | TGI (HCT-116 colon) | TGI (NCI/ADR-RES ovarian) | TGI (SN12C renal) | TGI (COLO 205 colon) | TGI (HOP-92 NSCLC) | TGI (OVCAR-3 ovarian) | TGI (BT-549 breast) | TGI (RXF 393 renal) | GI50 (OVCAR-3 ovarian) | GI50 (OVCAR-5 ovarian) | GI50 (UACC-257 melanoma) | GI50 (HCT-116 colon) | GI50 (BT-549 breast) | GI50 (NCI/ADR-RES ovarian) | GI50 (RXF 393 renal) | GI50 (SN12C renal) | GI50 (COLO 205 colon) | GI50 (HOP-92 NSCLC)
C/C(=C\c1ccc2c(c1)OCO2)[N+](=O)[O-] | 15.1 µM | 5.54 µM | > 100 µM | 37.9 µM | 15.9 µM | 4.2 µM | 5.53 µM | – | – | – | – | – | – | – | – | – | – | – | – | –
C(=N/Nc1ccccn1)/c1cccnc1 | > 100 µM | > 100 µM | > 100 µM | > 100 µM | > 100 µM | > 100 µM | > 100 µM | > 100 µM | > 100 µM | > 100 µM | – | – | – | – | – | – | – | – | – | –
CCCCCCCCCCCCCCCCC(=O)N1CCCC1C(=O)NCC(=O)NC(C(=O)N1CCCC1C(=O)NC(CO)C(=O)NC(Cc1ccc(O)cc1)C(=O)NC(CCCCNC(=O)C1CCCN1C(=O)C(CCCCN)NC(=O)C(CCCCN)NC(=O)C(CCCCN)NC(=O)C(CCCNC(=N)N)NC(=O)C(CCCCN)NC(=O)C(N)C(C)C)C(=O)NC(CC(C)C)C(=O)NC(CCCNC(=N)N)C(=O)N1CCCC1C(=O)NCC(N)=O)c1ccccc1 (stereo unspecified) (I: Heptadecanoyl-PG[Phg]PSYKLRPG-NH2 / II: H-VKRKKKP; amide I:7-II:C; configuration not given here) | > 100 µM | 62.9 µM | 43.8 µM | 84 µM | 27.7 µM | 18.4 µM | 83 µM | 71.2 µM | 89.3 µM | > 100 µM | 27 µM | 34.3 µM | 12.2 µM | 13 µM | 36.5 µM | 26.2 µM | 36.8 µM | 12 µM | 4.75 µM | 30.4 µM
CN(C)C(=S)SCc1ccccc1 | > 100 µM | > 100 µM | > 100 µM | > 100 µM | > 100 µM | > 100 µM | > 100 µM | > 100 µM | > 100 µM | > 100 µM | – | – | – | – | – | – | – | – | – | –
CCOC(=O)c1cc(Cl)ccc1OC(N)=O | > 100 µM | > 100 µM | > 100 µM | > 100 µM | > 100 µM | > 100 µM | > 100 µM | > 100 µM | – | > 100 µM | – | – | – | – | – | – | – | – | – | –
N#CC(C#N)=Cc1ccc(-c2ccc(-c3nc4ccccc4s3)cc2)s1 | 30.5 µM | > 100 µM | 31.1 µM | 22.7 µM | – | > 100 µM | – | 34.8 µM | 85.2 µM | > 100 µM | 14.9 µM | 14 µM | 65.3 µM | 12.3 µM | 31.1 µM | 5.74 µM | 40.5 µM | – | 23.7 µM | –
Nc1nc(Cl)nc2c1ncn2C1CCC(CO)O1 (stereo unspecified) | > 100 µM | > 100 µM | > 100 µM | > 100 µM | > 100 µM | > 100 µM | > 100 µM | > 100 µM | > 100 µM | > 100 µM | – | – | – | – | – | – | – | – | – | –
Cc1cccc(C(O)c2ccccn2)c1O (stereo unspecified) | > 100 µM | > 100 µM | > 100 µM | > 100 µM | > 100 µM | > 100 µM | – | > 100 µM | > 100 µM | > 100 µM | – | – | – | – | – | – | – | – | – | –
